The target in this test is T1, POsterior Segregation (Caenorhabditis elegans, UniProt G5EF15).
T1 sequence (G5EF15 whole entry): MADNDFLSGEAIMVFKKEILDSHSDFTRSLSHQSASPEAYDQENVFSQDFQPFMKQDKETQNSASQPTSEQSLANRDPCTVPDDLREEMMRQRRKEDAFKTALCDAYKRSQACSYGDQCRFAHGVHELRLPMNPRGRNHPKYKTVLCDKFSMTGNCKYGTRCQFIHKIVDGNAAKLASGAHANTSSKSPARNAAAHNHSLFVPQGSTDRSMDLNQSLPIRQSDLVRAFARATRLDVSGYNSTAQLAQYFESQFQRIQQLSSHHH
As to the kind of experiment: disruptors of C. elegans POS-1 RNA interaction – biochemical, fluorescence polarization, dose response (AID 1964). (Fluorescence polarisation rises when a labelled molecule tumbles more slowly, as on binding a larger partner.)

pEC50: −log10 of the molar value. Where only a bound is given, the exact number is not on record here.

What is called pEC50 is the EC50 on a negative log10 scale, so that one unit is a factor of ten.

The compound `C=CCc1cccc(C=Nn2cnnc2)c1O` [(6E)-2-allyl-6-[(1,2,4-triazol-4-ylamino)methylene]cyclohexa-2,4-dien-1-one] gave a negative-log EC50 (pEC50) of 3.65.

On to `CN1CCC2(CC1)C(C#N)C(=N)NC(=S)C2C#N` (configuration not stated) [SMR000211480], for which the pEC50 is 5.09.

The compound `N#CC1C(=N)C2=C(N3CCCCC3)CCCC2C1(C#N)C#N` (configuration not stated) [3-Amino-4-piperidin-1-yl-5,6,7,7a-tetrahydro-indene-1,1,2-tricarbonitrile] had a pEC50 of 4.05.

With `C[C@H]1c2cccc(O)c2C(=O)C2C(=O)[C@]3(O)C(=O)C(C(N)=O)C(=O)[C@@H](N(C)C)[C@@H]3[C@@H](O)[C@@H]21` (some centres not stated), the pEC50 was under 3.52.

The compound `COc1ccc(C(=O)CC=Nc2ccc([N+](=O)[O-])cc2C)cc1OC` [(E)-1-(3,4-dimethoxyphenyl)-3-(2-methyl-4-nitro-anilino)prop-2-en-1-one] gave a pEC50 of 4.26.

Take `CC1=NC(c2ccccc2)C(C#N)(C#N)C(C#N)(C#N)C1` (configuration not stated) [SMR000037705]: the pEC50 is 5.50.

Compound `O=C(CC=Nc1ccc([N+](=O)[O-])cc1)c1ccc(Br)cc1` [(E)-1-(4-bromophenyl)-3-(4-nitroanilino)-2-propen-1-one] gave a pEC50 of under 3.52.

Consider `O=C1N=c2ccccc2=C1NNc1ccc(F)cc1`, for which the pEC50 was under 3.52.

As for `COc1ccc(OC)c(NC=C2C(=O)NC(=S)N(Cc3ccccc3)C2=O)c1`, the pEC50 was under 3.52.

On to `[H]/N=C1/OC23CCCCC2C(C#N)(C#N)C1(C#N)C(c1ccc(OC)cc1)O3` (configuration not stated) [MLS000554241], for which the pEC50 was 4.90.

`COc1[nH]c(N=Cc2ccccc2)c(C#N)c1C#N` [2-methoxy-5-[(phenylmethylene)amino]-1H-pyrrole-3,4-dicarbonitrile] showed a pEC50 of 5.19.

In turn, `COc1ccc(NC=C2C(=O)NC(=S)N(Cc3ccccc3)C2=O)c(OC)c1` [1-Benzyl-5-[1-(2,4-dimethoxy-phenylamino)-meth-(Z)-ylidene]-2-thioxo-dihydro-pyrimidine-4,6-dione] had a pEC50 of under 3.52.

`Cn1c(=O)[nH]c(=O)c2c1nc(N=NC=C(Br)Cc1ccccc1)n2CCO` [SMR000436442] gave a pEC50 of 3.69.

`Cc1cc(CN=Nc2ccc([N+](=O)[O-])cn2)c(C)n1-c1ccc(C(=O)O)cc1` [4-{2,5-dimethyl-3-[2-(5-nitro-2-pyridinyl)carbonohydrazonoyl]-1H-pyrrol-1-yl}benzoic acid] gave a pEC50 of under 3.52.

As to `CCOC(=O)c1c(NC=C2C(=O)NC(=S)NC2=O)sc(C)c1C` [ethyl 2-[[4,6-bis(oxidanylidene)-2-sulfanylidene-1,3-diazinan-5-yl]methylideneamino]-4,5-dimethyl-thiophene-3-carboxylate], the pEC50 was under 3.52.

With `O=C1C=C(NNC(=O)c2sc3ccccc3c2Cl)CCC1` [3-chloranyl-N-[(3-oxidanylidenecyclohexylidene)amino]-1-benzothiophene-2-carboxamide], the pEC50 was 4.66.

As to `Cc1nnc(N2C(=O)C(=O)C(C(=O)c3ccco3)C2c2ccc(C(C)(C)C)cc2)s1` (configuration not stated) [2-(4-tert-butylphenyl)-3-(furan-2-carbonyl)-4-hydroxy-1-(5-methyl-1,3,4-thiadiazol-2-yl)-2H-pyrrol-5-one], the pEC50 is 4.60.

The compound `Cc1ccccc1NN=C1C(=O)N(C)c2ccccc21` [MLS001203477] gave a pEC50 of under 3.52.

The compound `O=C1C(=Nc2ccccc2O)C(Cl)C(=O)N1c1ccccc1` (configuration not stated) [3-Chloro-4-(2-hydroxy-phenylamino)-1-phenyl-pyrrole-2,5-dione] showed a pEC50 of under 3.52.

On to `Nc1c(-c2nc3ccccc3[nH]2)c(O)cn1-c1ccc(CC(=O)O)cc1` [MLS000565528], for which the pEC50 is 5.28.

With `CCOc1cc(C2C(C(C)=O)=C(C)OC(=N)C2C#N)cc(Br)c1O` (configuration not stated) [2-azanyl-4-(3-bromanyl-5-ethoxy-4-oxidanyl-phenyl)-5-ethanoyl-6-methyl-4H-pyran-3-carbonitrile], the pEC50 is 4.91.

`Oc1ccc(CN=Nc2ncnc3nc[nH]c23)cc1` [SMR000320358] had a negative logarithm of the EC50 (pEC50) of under 3.52.

In turn, `Cc1ccc(C(=O)C2C(=O)C(=O)N(Cc3ccco3)C2c2cccc(Br)c2)o1` (configuration not stated) [2-(3-bromophenyl)-1-(2-furanylmethyl)-4-hydroxy-3-[(5-methyl-2-furanyl)-oxomethyl]-2H-pyrrol-5-one] showed a pEC50 of under 3.52.

The compound `O=C1NC(=O)N(c2ccc(F)cc2)C(=O)C1=Cc1c[nH]c2ccccc12` [SMR000556295] had a pEC50 of 4.28.

For the compound `CC(=O)N1CCN(c2ccc(NC=C3C(=O)NC(=O)N(Cc4ccccc4)C3=O)cc2)CC1` [MLS000041641], the pEC50 was under 3.52.

Compound `COc1cccc(C2C3=C(CCCC3=O)OC(=N)C2C#N)c1OC(=O)c1ccco1` (configuration not stated) [2-(2-amino-3-cyano-5-oxo-5,6,7,8-tetrahydro-4H-chromen-4-yl)-6-methoxyphenyl 2-furoate] showed a pEC50 of under 3.52.

For the compound `NC(=O)c1ccccc1N=CCC(=O)c1ccc(F)cc1` [2-[[(E)-3-(4-fluorophenyl)-3-keto-prop-1-enyl]amino]benzamide], the pEC50 was under 3.52.

Take `Cc1cccc(Nc2nc(O)cs2)c1` [2-(3-methylanilino)-1,3-thiazol-4-one]: the pEC50 is under 3.52.

Compound `COc1ccc(CCN2C(=O)NC(=O)C(=CNc3ccc(NC(C)=O)cc3)C2=O)cc1OC` [MLS000332913] gave a pEC50 of under 3.52.

Compound `CCCCCCN1C(=O)NC(=O)C(=CNCCCn2ccnc2)C1=O` [(5E)-1-hexyl-5-[[3-(1-imidazolyl)propylamino]methylidene]-1,3-diazinane-2,4,6-trione] had a pEC50 of under 3.52.

Regarding `COc1ccc(CCN2C(=O)NC(=O)C(=CNNC(=O)c3ccncc3)C2=O)cc1OC` [Isonicotinic acid N'-[1-[2-(3,4-dimethoxy-phenyl)-ethyl]-2,4,6-trioxo-tetrahydro-pyrimidin-(5E)-ylidenemethyl]-hydrazide], the negative-log EC50 (pEC50) is 3.82.

Compound `Cc1[nH]n(C(N)=S)c(=O)c1N=Nc1c(Cl)cc([N+](=O)[O-])cc1Cl` [SMR000514008] gave a pEC50 of under 3.52.

On to `COc1ccc(OC)c(C2C(C(=O)c3ccco3)C(=O)C(=O)N2CCN2CCOCC2)c1` (configuration not stated) [2-(2,5-dimethoxyphenyl)-3-(furan-2-carbonyl)-4-hydroxy-1-(2-morpholin-4-ylethyl)-2H-pyrrol-5-one], for which the pEC50 is under 3.52.

With `Cc1ccc(C(=O)Cc2nc3ccccc3oc2=O)cc1` [(3Z)-3-[2-(4-methylphenyl)-2-oxidanylidene-ethylidene]-4H-1,4-benzoxazin-2-one], the pEC50 was under 3.52.

Regarding `COc1cc(C2C3=C(CCCC3=O)OC(=N)C2C#N)cc2c1OCO2` (configuration not stated), the pEC50 is under 3.52.

Compound `CN1CCC2=C(C#N)C(=N)C(C#N)(C#N)C(c3cccc(Cl)c3Cl)C2C1` (configuration not stated) [6-azanyl-8-[2,3-bis(chloranyl)phenyl]-2-methyl-1,3,8,8a-tetrahydroisoquinoline-5,7,7-tricarbonitrile] showed a pEC50 of 4.84.

In turn, `COc1cccc(C2C3CN(C)CCC3=C(C#N)C(=N)C2(C#N)C#N)c1OC` (configuration not stated) [6-Amino-8-(2,3-dimethoxy-phenyl)-2-methyl-2,3,8,8a-tetrahydro-1H-isoquinoline-5,7,7-tricarbonitrile] had a pEC50 of 5.66.

Compound `O=C1N=C(O)C(C2=c3cc([N+](=O)[O-])ccc3=NC2=O)S1` (configuration not stated) [MLS001163276] showed a negative logarithm of the EC50 (pEC50) of 4.88.

As to `N#CC1C(=N)OC2=C(C(=O)CCC2)[C@]12C(=O)N(CC(N)=O)c1ccccc12` (stereo partly drawn) [2-[(4R)-2-amino-3-cyano-2',5-diketo-spiro[7,8-dihydro-6H-chromene-4,3'-indoline]-1'-yl]acetamide], the negative logarithm of the EC50 (pEC50) was under 3.52.

`O=NCc1cccn1-c1cccc(C(=O)O)c1` [3-[2-(hydroximinomethyl)pyrrol-1-yl]benzoic acid] gave a pEC50 of under 3.52.

As for `COc1cc(C2c3c(-c4cccnc4)n[nH]c3OC(=N)C2C#N)cc(Br)c1O` (configuration not stated), the pEC50 is under 3.52.

As for `C=CCSc1nnc(N2C(=O)C(=O)C(C(=O)c3ccco3)C2c2ccccc2F)s1` (configuration not stated) [1-[5-(allylthio)-1,3,4-thiadiazol-2-yl]-5-(2-fluorophenyl)-4-(2-furoyl)-3-hydroxy-3-pyrrolin-2-one], the pEC50 is 4.32.

On to `COc1ccccc1N1C(=O)NC(=O)C(=Cc2c[nH]c3ccccc23)C1=O` [SMR000495900], for which the pEC50 is under 3.52.

`N#CC1=C2CCCCC2C(c2cccnc2)C(C#N)(C#N)C1=N` (configuration not stated) [2-amino-4-(3-pyridinyl)-4a,5,6,7-tetrahydro-4H-naphthalene-1,3,3-tricarbonitrile] gave a pEC50 of 4.65.

In the case of `NC(=NNC=c1ccc(=C2C=CC(=O)C(C(=O)O)=C2)o1)N[N+](=O)[O-]` [5-(5-{2-[amino(nitroimino)methyl]carbonohydrazonoyl}-2-furyl)-2-hydroxybenzoic acid], the pEC50 was 4.52.

Compound `Cc1ccc(Cl)c2c1=NC(=O)C=2NNc1ccccc1` gave a negative logarithm of the EC50 (pEC50) of 4.73.

Regarding `O=C(NN=Cc1c(O)n(-c2ccccc2)c(=S)[nH]c1=O)c1ccc(O)cc1` [N'-[(1Z)-(4,6-dioxo-1-phenyl-2-thioxohexahydropyrimidin-5-yl)methylene]-4-hydroxybenzohydrazide], the pEC50 is under 3.52.

`COc1ccc(C=C2CCCC(C(=O)C(F)(F)F)C2=O)cc1` (configuration not stated) [SMR000142699] had a pEC50 of 4.44.

As to `CCCOc1cccc(C2C(C(=O)c3ccco3)C(=O)C(=O)N2c2nnc(C)s2)c1` (configuration not stated) [3-(furan-2-carbonyl)-4-hydroxy-1-(5-methyl-1,3,4-thiadiazol-2-yl)-2-(3-propoxyphenyl)-2H-pyrrol-5-one], the negative logarithm of the EC50 (pEC50) is 4.28.

Compound `CC(=N)C(C#N)C(=O)CSc1ncnc2ccccc12` (configuration not stated) [(E)-3-amino-2-(2-quinazolin-4-ylsulfanylacetyl)but-2-enenitrile] gave a pEC50 of under 3.52.

Regarding `N#CC1C(=N)Oc2cc(O)c(Cl)cc2C1c1ccccc1F` (configuration not stated) [2-Amino-6-chloro-4-(2-fluoro-phenyl)-7-hydroxy-4H-chromene-3-carbonitrile], the pEC50 is under 3.52.

Compound `Oc1ccc2ccccc2c1CN=Nc1nnc(-c2ncc[nH]2)c2ccccc12` [SMR000151639] gave a pEC50 of 4.31.

(Values after BindingDB's records for doi:10.7270/Q28G8J4C (Broad Institute, 2009).)
